# In patent US7186732B2, “Non-imidazole aryloxyalkylamines” (Ortho-McNeil Pharmaceutical, Inc., priority 2000, dated 2007):
# pKi: −log10 of the molar value. Where a name gives a salt, the structure may show the parent alone.
# Target: T1, human histamine H3 receptor (Homo sapiens, UniProt Q9Y5N1)
# T1 construct: expressed in transfected cells; membranes prepared from cell pellets
# Test: [3H]-N-methylhistamine binding to membranes of histamine H3 receptor-expressing SK-N-MC cells
# Conditions: 0.8 nM [3H]-N-methylhistamine, 45 min at 25° C., SK-N-MC cell membranes; Ki=(IC50)/(1+([L]/(Kd)); read-out: Ki
# Method: Thus in the present invention receptor binding was determined using the human histamine H3 receptor (See Lovenberg et al Mol. Pharmacol. 1999, 1107). Screening using the human receptor is particularly important for the identification of new therapies for the treatment of human disease. Conventional binding assays for example are determined using rat synaptosomes (Garbarg et al J. Pharmacol. Exp. Ther. 1992, 263, 304), rat cortical membranes (West et al Mol. Pharmacol. 1990, 610), and guinea pig brain (Korte et al Biochem. Biophys. Res. Commun. 1990, 978).
# Transfection of Cells with Human Histamine Receptor
# A 10 cm tissue culture dish with a confluent monolayer of SK-N-MC cells was split two days prior to transfection. Using sterile technique the media was removed and the cells were detached from the dish by the addition of trypsin. One fifth of the cells were then placed onto a new 10 cm dish. Cells were grown in a 37° C. incubator with 5% CO2 in Minimal Essential Media Eagle with 10% Fetal Bovine Serum. After two days cells were approximately 80% confluent. These were removed from the dish with trypsin and pelleted in a clinical centrifuge. The pellet was then re-suspended in 400 μL complete media and transferred to an electroporation cuvette with a 0.4 cm gap between the electrodes (Bio-Rad #165–2088). One microgram of supercoiled H3 receptor cDNA was added to the cells and mixed. The voltage for the electroporation was set at 0.25 kV, the capacitance was set at 960 μF. After electroporation the cells were diluted into 10 mL complete media and plated onto four 10 cm dishes. Because of the variability in the efficiency of electroporation, four different concentrations of cells were plated. The ratios used were; 1:20, 1:10, 1:5, with the remainder of the cells being added to the fourth dish. The cells were allowed to recover for 24 hours before adding the selection media (complete media with 600 μg/mL G418). After 10 days dishes were analyzed for surviving colonies of cells. Dishes with well isolated colonies were used. Cells from individual colonies were isolated and tested. SK-N-MC cells were used because they give efficient coupling for inhibition of adenylate cyclase. The clones that gave the most robust inhibition of adenylate cyclase in response to histamine were used for further study.
# [^3H]-N-methylhistamine Binding
# Cell pellets from histamine H3 receptor-expressing SK-N-MC cells were homogenized in 20 mM TrisHCI/0.5 mM EDTA. Supernatants from a 800 g spin were collected, recentrifuged at 30,000 g for 30 minutes. Pellets were re-homogenized in 50 mM Tris/5 mM EDTA (pH 7.4). Membranes were incubated with 0.8 nM [^3H]-N-methylhistamine plus/minus test compounds for 45 min at 25° C. and harvested by rapid filtration over GF/C glass fiber filters (pretreated with 0.3% polyethylenimine) followed by four washes with ice cold buffer. Filters were dried, added to 4 mL scintillation cocktail and then counted on a liquid scintillation counter. Non-specific binding was defined with 10 μM histamine. The pKi values were calculated based on a Kd of 800 pM and a ligand concentration ([L]) of 800 pM according to the formula: Ki=(IC50)/(1+([L]/(Kd))
# T1 sequence (Q9Y5N1 whole entry): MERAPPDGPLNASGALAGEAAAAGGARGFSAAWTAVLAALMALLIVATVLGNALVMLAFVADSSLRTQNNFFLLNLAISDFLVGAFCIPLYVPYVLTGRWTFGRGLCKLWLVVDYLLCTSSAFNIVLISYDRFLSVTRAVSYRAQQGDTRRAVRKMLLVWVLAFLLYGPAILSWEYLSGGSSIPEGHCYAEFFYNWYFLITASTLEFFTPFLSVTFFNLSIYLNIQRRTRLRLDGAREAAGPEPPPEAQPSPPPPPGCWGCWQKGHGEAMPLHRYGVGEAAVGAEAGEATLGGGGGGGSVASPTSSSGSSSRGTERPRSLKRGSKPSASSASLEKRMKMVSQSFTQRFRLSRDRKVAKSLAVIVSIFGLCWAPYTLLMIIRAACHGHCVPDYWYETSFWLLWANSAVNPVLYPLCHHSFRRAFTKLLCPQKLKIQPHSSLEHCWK
row,SMILES,pKi
1,"c1ccc2c(c1)CCN(Cc1ccc(OCCCN3CCCCC3)cc1)C2 [Example 36, 2-[4-(3-Piperidin-1-yl-propoxy)-benzyl]-1,2,3,4-tetrahydro-isoquinoline]",9.15
2,"CN1CCC(N(C)Cc2ccc(OCCCN3CCCCC3)cc2)CC1 [Example 76, Methyl-(1-methyl-piperidin-4-yl)-[4-(3-piperidin-1-yl-propoxy)-benzyl]-amine]",8.96
3,"CCN(CC)CCOc1ccc(CN2CCCCC2)cc1 [Example 81, Diethyl-[2-(4-piperidin-1-ylmethyl-phenoxy)-ethyl]-amine]",6.85
4,"c1ccc(NCc2ccc(OCCCN3CCCC3)cc2)nc1 [Example 39, Pyridin-2-yl-[4-(3-pyrrolidin-1-yl-propoxy)-benzyl]-amine]",8.35
5,"C(=C\c1ccccc1)/CN1CCN(Cc2ccc(OCCCN3CCCCC3)cc2)CC1 [Example 75, 1-(3-Phenyl-allyl)-4-[4-(3-piperidin-1-yl-propoxy)-benzyl]-piperazine]",8.80
6,"CC1CCCCN1CCCOc1ccc(CN2CCCCC2)cc1 (stereo not drawn) [Example 73, 2-Methyl-1-[3-(4-piperidin-1-ylmethyl-phenoxy)-propyl]-piperidine]",8.96
7,"CN(CCc1ccccc1)Cc1cccc(OCCCN2CCCCC2)c1 [Example 74, Methyl-phenethyl-[3-(3-piperidin-1-yl-propoxy)-benzyl]-amine]",8.52
8,"c1cc(-c2ncc(OCCCN3CCCCC3)cn2)ccc1OCCCN1CCCCC1 [Example 33, 5-(3-Piperidin-1-yl-propoxy)-2-[4-(3-piperidin-1-yl-propoxy)-phenyl]-pyrimidine]",7.89
9,"c1ccc(CN2CCN(c3ccc(OCCCN4CCCC4)cc3)CC2)cc1 [Example 24, 1-Benzyl-4-[4-(3-pyrrolidin-1-yl-propoxy)-phenyl]-piperazine]",8.89
10,"c1cc(OCCN2CCCCC2)ccc1OCCCN1CCCCC1 [Example 30, 1-{3-[4-(2-Piperidin-1-yl-ethoxy)-phenoxy]-propyl}-piperidine]",9.40
11,"Clc1ccc(NCc2ccc(OCCCN3CCCCC3)cc2)cc1 [Example 85, (4-Chloro-phenyl)-[4-(3-piperidin-1-yl-propoxy)-benzyl]-amine]",7.64
12,"c1cc(OCCN2CCCCC2)ccc1CN1CCCCC1 [Example 20, 1-[2-(4-Piperidin-1-ylmethyl-phenoxy)-ethyl]-piperidine]",8.30

# Same assay, conditions: 0.8 nM [3H]-N-methylhistamine, 45 min at 25° C., SK-N-MC cell membranes; […]; read-out: Ki
row,SMILES,pKi
1,"c1cc(N2CCNCC2)ccc1OCCCN1CCCC1 [Example 23, 1-[4-(3-Pyrrolidin-1-yl-propoxy)-phenyl]-piperazine hydrochloride]",8.89
2,"OC1(c2ccc(Cl)cc2)CCN(Cc2ccc(OCCCN3CCCCC3)cc2)CC1 [Example 86, 4-(4-Chloro-phenyl)-1-[4-(3-piperidin-1-yl-propoxy)-benzyl]-piperidin-4-ol]",8.74
3,"c1ccc(CN2CCN(c3ccc(OCCCN4CCCCC4)cc3)CC2)cc1 [Example 27, 1-Benzyl-4-[4-(3-piperidin-1-yl-propoxy)-phenyl]-piperazine]",8.52
